Source: PMC11187126, “Structure and dynamics of the pyroglutamylated RF-amide peptide QRFP receptor GPR103” (Nature Communications, 2024)
No end group written: not given here.

Biological target: T1, GPR103 Q184^4.64A (Homo sapiens, UniProt Q96P65, Q184A)
T1 construct: we used human full-length QRFPR-encoding plasmids; expressed in transfected cells; host or cells: HEK293 cells, pCAGGS vector
T1 sequence (Q96P65 1-431 Q184A): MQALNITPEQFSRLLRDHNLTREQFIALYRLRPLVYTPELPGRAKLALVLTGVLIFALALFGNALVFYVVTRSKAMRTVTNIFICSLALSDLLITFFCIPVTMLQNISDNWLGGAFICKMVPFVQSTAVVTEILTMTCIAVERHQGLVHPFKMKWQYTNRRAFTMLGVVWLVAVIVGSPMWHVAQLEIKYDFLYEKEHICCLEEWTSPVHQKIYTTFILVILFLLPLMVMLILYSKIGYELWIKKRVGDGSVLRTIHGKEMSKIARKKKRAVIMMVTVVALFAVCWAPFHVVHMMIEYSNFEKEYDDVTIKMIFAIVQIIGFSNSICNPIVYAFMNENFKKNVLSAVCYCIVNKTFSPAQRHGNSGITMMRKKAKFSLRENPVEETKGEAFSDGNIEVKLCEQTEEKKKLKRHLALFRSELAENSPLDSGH
Test: TGFα shedding assay; Exp. level WT (1:5)
Assay type: cell-based
Description: For the TGFα shedding assay and the flow cytometry analysis, we used human full-length QRFPR-encoding plasmids. Specifically, GPR103 was N-terminally modified with an HA signal sequence followed by a FLAG epitope and then a flexible linker ([…]; the FLAG epitope is underlined) and inserted into the pCAGGS vector. Plasmid encoding GPR103 mutants were generated using Quickchange Site-Directed Mutagensis kit (Agilent).
The TGFα shedding assay was performed as described previously with minor modifications. Plasmid transfection was performed in a 6-well plate with a mixture of 500 ng (per well in a 6-well plate) AP-TGFα-encoding plasmid and 200 ng GPR103-encoding plasmid. After 1-day culture, the transfected cells were harvested by trypsinization, pelleted by centrifugation at 190 × g for 5 min, and washed once with 5 mM HEPES (pH 7.4)-containing Hank’s Balanced Salt Solution (HBSS). After centrifugation, the cells were resuspended in 8 mL of the HEPES-containing HBSS. The cell suspension was seeded in a 96-well culture plate (cell plate) at a volume of 90 μL (per well hereafter) and incubated in a 37 °C incubator with 5% CO2 for 30 min. […] After spinning the cell plates at 190 × g for 2 min, 80 μL of conditioned media was transferred to an empty 96-well plate (conditioned media (CM) plate). Then, 80 μL of AP reaction solution (10 mM p-nitrophenylphosphate (p-NPP), 120 mM Tris-HCl (pH 9.5), 40 mM NaCl, and 10 mM MgCl2) was dispensed into the cell plates and the CM plates. Absorbance at 405 nm of the plates was measured using a microplate reader (SpectraMax 340 PC384, Molecular Devices) before and after 1-h incubation at room temperature. Ligand-induced AP-TGFα release was calculated by subtracting spontaneous AP-TGFα release signal from ligand-induced AP-TGFα release signal. The AP-TGFα release signals were fitted to a four-parameter sigmoidal concentration–response curve, using the Prism 10 software (GraphPad Prism). For each replicate experiment, the pEC50 parameter (negative logarithmic values of EC50 values) of the individual GPR103 mutants were normalized to that of the wild-type GPR103 performed in parallel, and resulting ∆pEC50 values were used to denote ligand response activity of the mutants. […]
Exp. le vel: WT (1:5 0)Exp. le vel: WT (1:5 0)Exp. le vel: WT (1:5 0)Exp. le vel: WT (1:2 0)Exp. le vel: WT (1:2 0)Exp. le vel: WT (1:1 0) […]
L1 4N - t e r mA F2 5N - t e r mA I 2 6N - t e r mA Y 2 9N - t e r mA C 9 82 .5 7A T10 22 .6 1A Exp . l eve l: WT (1 :5)Exp . l evel : >WT (1 :1)Exp. le vel: WT (1:2 0)Exp. le vel: WT (1:2 0)Exp. le vel: WT (1:5 0)Exp . l eve l: WT (1 :1) […]
Exp. le vel: WT (1:1 0)Exp. le vel: WT (1:2 0) C 1 1 83 .2 5AExp. le vel: WT (1:5 0)Exp. le vel: WT (1:5 0)Exp. le vel: WT (1:2 0)Exp . l eve l: WT (1 :5) […]
Exp. le vel: WT (1:5 0)Exp. le vel: WT (1:1 0)Exp. le vel: WT (1:5 0) E203ECL2AExp . l evel : >WT (1 :1)Exp. le vel: WT (1:5 0)Exp. le vel: WT (1:5 0) […]
Exp . l eve l: WT (1 :1) F28Exp. le vel: WT (1:5 0) C 2 8 56 .4 7AExp. le vel: WT (1:2 0) WExp. le vel: WT (1:2 0) F28Exp. le vel: WT (1:5 0)Exp . l evel : >WT (1 :1) […]
Exp. le vel: WT (1:5 0)Exp. le vel: WT (1:5 0) C 3 2 77 .4 8AExp . l eve l: WT (1 :5)Exp . l evel : >WT (1 :1)Exp . l evel : >WT (1 :1) […]
Suppl eme nt ary Figure 1 | Mutational analysis of GPR103. […]
mutants. Data are presented as mean values ± SEM, normally n=3-5; dots), each performed in triplicate. b-d Cell-surface expression (b) and QRFP26-in-duced activation of GPR103 (c, d) were analyzed by the flow cytometry and the TGFα shedding assay, respectively. From the concentration–response curves (a), Emax (c) and ΔpEC50 (d) values relative to the wild type were calculated. Colors in the mutant bars indicate an expression level matching to that of titrated wild type. Statistical analyses were performed using the ordinary one-way ANOVA followed by Dunnett tests with the expression-matched […]

- Emax (mean): 99.8%
- EC50 (n = 3): 234 nM
- Emax (n = 3): 103 ± 2.2%
Substance: TSGPLGNLAEELNGYSRKKGGFSFRF-NH2 [QRFP26]
